Legend:
[1] = cited from earlier work
[2] = across species tested; cited from earlier work
[3] = rats, cited from earlier work
[4] = cited from earlier work; remark: listed apart in the source
[5] = system: rat model of formalin (FML)-induced chronic pain; test: Von Frey assay (VFA), mechanical allodynia, formalin-induced rat pain model; format: in vivo, Sprague Dawley rats
Source text: This example describes the effects of intravenous administration of psychedelics on pain perception and diseases associated with pain, such as nociplastic pain, in an animal model of pain. A rat model of formalin (FML)-induced chronic pain was used to investigate the effect of psilocybin administration on mechanical allodynia and thermal hyperalgesia.
Chronic pain in rats was induced by injection of formalin into the hind paw. The rats subsequently were intravenously administered psilocybin, and assessed for changes in pain perception over an extended period of time. […] The pain perception was measured in the contralateral and ipsilateral paws to assess the potential benefit of psychedelics (e.g., psilocybin) in nociplastic pain disorders. […]
Adult male Sprague Dawley rats (300-350 g) were implanted with a catheter in the jugular vein for delivery of 10 mg/kg psilocybin or 0.9% saline. Mechanical allodynia was assessed using von Frey assay (VFA) and was expressed as the threshold in grams (g). Thermal hyperalgesia was measured as paw withdrawal latency in seconds (s) using the hot plate assay (HPA) (52.5° C.). After post-surgical recovery (7-10 days), baseline responses to mechanical and thermal stimuli were measured. […] Two hours after the formalin injection, paw withdrawal thresholds in response to mechanical and thermal stimuli were measured. […]
Two types of pain perception were measured. […]

[6] = single oral administration of psilocybin at 0.225 mg/kg (Hasler et al.)

Compound	time until psilocin is detectable in plasma ([1]; after administration of the parent compound (oral psilocybin)) [min]	absolute bioavailability of psilocin after oral administration of psilocybin ([1]; estimate (Hasler et al.))	half-life of psilocin in blood ([1]; in vivo) [h]	average peak concentration of psilocin in plasma [1, 6]	time of peak plasma levels of psilocin [1, 6] [min]	brain regions with the highest levels of psilocin [2]	share of total psilocin absorbed from the digestive tract ([3]; oral psilocybin (Kalberer et al.))	time to maximum plasma levels ([3]; post-administration (Chen et al.))	tolerability ([4]; at the doses examined in clinical studies / healthy individuals)	rates of prolonged psychiatric symptoms of any kind following psilocybin exposure ([4]; healthy study subjects, estimated)	drug-related serious adverse events (SAEs) ([4]; oral psilocybin)	bioavailability of oral psilocybin ([1]; oral) [%]	duration of statistically significant increase in withdrawal threshold ([5]; contralateral paw, after a single psilocybin administration) [weeks]	duration of decreased tactile pain ([5]; rat model of pain)
CN(C)CCc1c[nH]c2cccc(O)c12 [psilocin]	≤ 20	52.7+/−20%	2 to 3	8.2+/−2.8 ng psilocin/ml plasma	105 ± 37	neocortex, hippocampus, and thalamus	approximately 50%	approximately 90 minutes						
CN(C)CCc1c[nH]c2cccc(OP(=O)(O)O)c12 [psilocybin, 3-[2-(dimethylamino)ethyl]-1H-indol-4-yl]dihydrogen phosphate]									well tolerated	0.08-0.09%	No drug-related serious adverse events (SAEs) have been reported	~50	3	up to 28 days

— patent US20260108545A1, “Methods of treating fibromyalgia with compositions comprising psilocybin” (Tryp Therapeutics Inc., priority 2022, published 2026)
